Measured values as given in patent publication US10233206B2, “D-fagomine for the control of inflammatory processes related to an overactivation of the humoral immune response” (priority 2013, dated 2019).
“And” between values parts separate entries of the source, which are not always exact repeats. Equal entries are not always repeated. “Also recorded” adds a separate entry of the source.

Legend:
[1] = Kim H. et al. 2005; cited from earlier work
[2] = system: E. coli 434; assay: Recovery of E. coli in tissue: ex vivo adhesion of E. coli to human colon mucosal samples (organ culture); format: cell-based; conditions: for E coli × 10 6 Recovery on tissue: 4 h culture with E. coli, individual samples 1 and 2; for E coli × 10 6 Standarized 30 mg, Average: mean of 2 samples; for E coli × 10 6 Standarized 30 mg: normalized to 30 mg tissue, individual samples; for E. coli recovery in tissue, Average % over control: control Ec = 100.0%
Method: (§1) The aim of this investigation was to determine the effects “ex vivo” of D-fagomine on the adhesion of E. coli to human colon mucosal samples and their possible influence on the release of inflammatory mediators on a range of doses as an indication of the activation of the innate immune response.
(§2) The approach, included the incubation of an E. coli strain with mucosal colonic samples obtained by surgery. The intention was to preserve the whole structure of mucosal samples including multiple cell populations such as epithelial cells and immunocompetent cells (macrophages, dendritic cells, plasma cells and lymphocytes), all of them keeping their original structure and disposition for cell to cell interaction. In other words, the approach was intended for mimicking the “in vivo” conditions of the colon mucosa.
In the design of the study doses of 0, 50, 500 and 5000 μg/ml of D-fagomine were tested.
Pathogenic strains of E coli were used. The main differences of pathogenic strains of E coli vs. other non pathogenic are related to their capacity to avoid the immune system.
(§3) Samples of macroscopically normal colonic mucosa were obtained at surgery from patients undergoing colectomy for colonic cancer. Areas free of disease were collected in ice-cold saline and transferred immediately to the Laboratory of the Digestive Research Unit of Hospital's Vail d'Hebron (Barcelona). After washing with saline, the mucosa was dissected from the muscularis layer and pieces between 25 and 30 mg were placed surface up in culture wells (15 mm diameter wells with 500 μm bottom mesh, Netwell culture systems, Costar, Cambridge, Mass.), and orientated so that the epithelial surface was upper-most. Filters were suspended over wells containing 1.5 ml of RPMI edium (CanSera, Rexdale, Ontario, Canada) supplemented with 10% foetal calf serum (FCS; Gibco-BRL, Eggenstein, Germany), glutamine 2 mM and antibiotics: 100 U/ml penicillin, 100 microg/ml streptomycin and 50 microg/ml gentamycin, (all from Normon, Madrid, Spain). This volume is just for maintaining the humidity of the surface but not for sinking beneath the surface.
(§4) Biopsies were incubated at 37° C. in a 95% O2+5% CO2 atmosphere and stimulated during 1 h with PMA (phorbol-12-myristate-13-acetate) and lonomycin (100/1000 ng/mL), both available from Sigma.
(§5) Thereafter, medium was replaced by fresh RPMI 1640 medium (without glucose) supplemented with 10% FCS and sodium bicarbonate at 24 mmol/L.
(§6) Bacteria strain E. coli ([…]) and fagomine (50, 500 and 5000 μg/mL) were added carefully to the explants. After 4 h of culture of tissues with E. coli, supernatants were collected for measurement of E. coli recovery, release of TNF-α, LDH (viability) and pH. Moreover, the tissues were rinsed, homogenized and assayed for E. coli recovery and LDH (to study tissue viability).
The pathogenic E. coli reference strain (CECT 434, (Migula 1895) Castellani and Chalmers 1919) was provided by Dr. Maria Angeles Calvo (Microbiology Laboratory, Faculty of Veterinary, Autonomous University of Barcelona, Spain)
The day before of the experiment with tissue, the E. coli strain was inoculated in Luria Bertani broth (Pharmacy, Hospital Vail d'Hebron, Autonomous University of Barcelona, Spain) at 37° C. under aerobic conditions for 24 h. The day of the experiment bacteria were harvested in the stationary phase, cell counts in the bacterial suspension were estimated by optical density at 600 nm absorbance, and bacteria were added to the tissue-culture wells at the appropriate dilution.
In order to quantify only the adherent E. coli bacteria, at the end of the culture, tissues were recovered and rinsed with 2 ml of saline in an orbital mixer at low speed during 2 minutes. After rinsing, each tissue was homogenized in 1 ml of saline and dilutions were prepared to quantify the recovery of E. coli in solid agar selective media. […]

[3] = system: TNF-α; assay: TNF-α release into the supernatant of human colon mucosa organ culture with E. coli (ELISA); format: cell-based; conditions: for TNF-alfa (1.5 ml standarized 30 mg) / TNF-alfa/ml: individual samples, listed as Fag; for TNF-alfa (1.5 ml standarized 30 mg, Average): mean of 2 samples; for TNF-alfa/ml: supernatant after 4 h
Method: as §1, §2, §3, §4, §5, §6
Concentration of TNF-α in the supernatants was measured using a commercially available ELISA assay system for human citoquine TNF-α (Ready to Set, e-Bioscience). Cytokine concentration is expressed as pg (TNF-α) per 30 mg of tissue.

[4] = system: colon tissue; assay: Colon viability (LDH release); format: cell-based, human
Method: as §3, §6
To estimate tissue viability, we calculated LDH (lactate-dehydrogenase) activity release in the supernatant. This method was validated by Finnie (Gut 1995). The ratio of LDH activity in the supernatant over total LDH activity in tissue homogenates was calculated and used to estimate the percentage of viable tissue. Tissue samples were homogenized in Tris/HCl (100 mmol/L, pH 7.4) and supernatants were analysed for LDH using the spectrophotometric method. Tissue viability was assessed as the release of LDH per mg of tissue.

[5] = system: bacteria; conditions: Gomez L. et al.; Castillo J. A. et al.; cited from earlier work
[6] = Gomez L. et al. Br. J. Nutr. 2012; cited from earlier work
[7] = system: bacteria; conditions: WO2011117362; cited from earlier work
[8] = D-fagomine 50 μg/ml, listed as Fag
[9] = D-fagomine 500 μg/ml, listed as Fag
[10] = D-fagomine 50 μg/ml with E. coli
[11] = D-fagomine 500 μg/ml with E. coli
[12] = D-fagomine 5000 μg/ml with E. coli

Compound: C[C@@H]1O[C@@H](OC[C@H]2O[C@@H](Oc3c(-c4ccc(O)c(O)c4)oc4cc(O)cc(O)c4c3=O)[C@H](O)[C@@H](O)[C@@H]2O)[C@H](O)[C@H](O)[C@H]1O [rutin]
- Stability and deglycosylation in the intestine after oral administration (in words) [1]: stable in the upper intestine, but rapidly deglycosylated to liberate the quercetin at the level of the colon

Compound: OC[C@H]1NCC[C@@H](O)[C@@H]1O (stereo in doubt) [D-fagomine, (2R, 3R, 4R)-2-hydroxymethylpiperidine-3,4-diol]
- Antiadherent effect against E. coli on colon mucosa (in words) ([2]; 50, 500 and 5000 μg/ml): antiadherent properties against E. coli in a dose dependent manner; also recorded: antiadherent effect against E. coli on the colon epithelium
- E coli × 10 6 Recovery on tissue [2, 8]: 4 × 10 6 and 4.4 × 10 6
- E coli × 10 6 Standarized 30 mg, Average ([2]; D-fagomine 50 μg/ml): 4.22 × 10 6
- E coli × 10 6 Standarized 30 mg [2, 8]: 4.12 × 10 6 and 4.31 × 10 6
- E. coli recovery in tissue, Average % over control ([2]; D-fagomine 50 μg/ml): 56.6%
- E coli × 10 6 Recovery on tissue [2, 9]: 2.4 × 10 6 and 0.8 × 10 6
- E coli × 10 6 Standarized 30 mg, Average ([2]; D-fagomine 500 μg/ml): 1.56 × 10 6
- E coli × 10 6 Standarized 30 mg [2, 9]: 2.21 × 10 6 and 0.9 × 10 6
- E. coli recovery in tissue, Average % over control ([2]; D-fagomine 500 μg/ml): 21.0%
- E coli × 10 6 Recovery on tissue ([2]; D-fagomine 5000 μg/ml): 1.6 × 10 6
- E coli × 10 6 Standarized 30 mg, Average ([2]; D-fagomine 5000 μg/ml): 1.47 × 10 6
- E coli × 10 6 Standarized 30 mg ([2]; D-fagomine 5000 μg/ml, listed as Fag): 1.4 × 10 6 and 1.55 × 10 6
- E. coli recovery in tissue, Average % over control ([2]; D-fagomine 50 or 5000 μg/ml): 19.8%
- TNF-alfa release at 50 μg/mL, times higher than at 500 μg/mL ([3]; 50 μg/mL versus 500 μg/mL): 5 times
- TNF-alfa release at 50 μg/mL, times higher than at 5000 μg/mL ([3]; 50 μg/mL versus 5000 μg/mL): ~8 times
- Stimulation of TNF-alfa release (in words) ([3]; 50, 500 and 5000 μg/ml with E. coli): capacity to stimulate the release of TNF-alfa and that the lower is the dose the more potent is such release; also recorded: stimulating the release of TNF-alfa either with respect to the control with E. coli or with respect to the control without E. coli
- TNF-alfa (1.5 ml standarized 30 mg) [3, 10]: 145.4 pg (TNF-α) per 30 mg of tissue and 164.2 pg (TNF-α) per 30 mg of tissue
- TNF-alfa (1.5 ml standarized 30 mg, Average) [3, 10]: 154.8 pg (TNF-α) per 30 mg of tissue
- TNF-alfa/ml [3, 10]: 106.2 mL⁻¹ and 98.8 mL⁻¹
- TNF-alfa (1.5 ml standarized 30 mg) [3, 11]: 31.9 pg (TNF-α) per 30 mg of tissue and 28.6 pg (TNF-α) per 30 mg of tissue
- TNF-alfa (1.5 ml standarized 30 mg, Average) [3, 11]: 30.3 pg (TNF-α) per 30 mg of tissue
- TNF-alfa/ml [3, 11]: 20.7 mL⁻¹ and 18.6 mL⁻¹
- TNF-alfa (1.5 ml standarized 30 mg) [3, 12]: 8.2 pg (TNF-α) per 30 mg of tissue and 18.1 pg (TNF-α) per 30 mg of tissue
- TNF-alfa (1.5 ml standarized 30 mg, Average) [3, 12]: 13.2 pg (TNF-α) per 30 mg of tissue
- TNF-alfa/ml [3, 12]: 13.8 mL⁻¹ and 5.7 mL⁻¹
- Viability LDH ([4]; E. coli + D-fagomine 50 μg/ml): 88.20%
- Viability LDH ([4]; E. coli + D-fagomine 500 μg/ml): 91.47%
- Viability LDH ([4]; E. coli + D-fagomine 5000 μg/ml): 83.88%
- Effect on viability of the tissue (in words) ([4]; coculture with E. coli or fagomine): does not affect the viability of the tissue
- Antimicrobial activity (in words) [5]: do not show antimicrobial activity
- Postprandial blood glucose level and insulin secretion (in words) [6]: decrease postprandrial blood glucose level without stimulating insulin secretion
- Bacterial adherence to mucosal surface (in words) [7]: inhibiting bacterial adherence to mucosal surface
